Results taken from patent EP4644396A1 (Visionpharma (Nantong) Co., Ltd, priority 2022, dated 2024).
Where two headings read alike, the source gives them in different places.

What was measured:
[1] = molecular target: T1, human TLR7 (Homo sapiens, UniProt Q9NYK1); experiment: HEK-Blue hTLR7 SEAP reporter gene inhibition assay; assay type: cell-based; settings: read-out: HEK-Blue hTLR7 IC50
T1 sequence (Q9NYK1 27-1049): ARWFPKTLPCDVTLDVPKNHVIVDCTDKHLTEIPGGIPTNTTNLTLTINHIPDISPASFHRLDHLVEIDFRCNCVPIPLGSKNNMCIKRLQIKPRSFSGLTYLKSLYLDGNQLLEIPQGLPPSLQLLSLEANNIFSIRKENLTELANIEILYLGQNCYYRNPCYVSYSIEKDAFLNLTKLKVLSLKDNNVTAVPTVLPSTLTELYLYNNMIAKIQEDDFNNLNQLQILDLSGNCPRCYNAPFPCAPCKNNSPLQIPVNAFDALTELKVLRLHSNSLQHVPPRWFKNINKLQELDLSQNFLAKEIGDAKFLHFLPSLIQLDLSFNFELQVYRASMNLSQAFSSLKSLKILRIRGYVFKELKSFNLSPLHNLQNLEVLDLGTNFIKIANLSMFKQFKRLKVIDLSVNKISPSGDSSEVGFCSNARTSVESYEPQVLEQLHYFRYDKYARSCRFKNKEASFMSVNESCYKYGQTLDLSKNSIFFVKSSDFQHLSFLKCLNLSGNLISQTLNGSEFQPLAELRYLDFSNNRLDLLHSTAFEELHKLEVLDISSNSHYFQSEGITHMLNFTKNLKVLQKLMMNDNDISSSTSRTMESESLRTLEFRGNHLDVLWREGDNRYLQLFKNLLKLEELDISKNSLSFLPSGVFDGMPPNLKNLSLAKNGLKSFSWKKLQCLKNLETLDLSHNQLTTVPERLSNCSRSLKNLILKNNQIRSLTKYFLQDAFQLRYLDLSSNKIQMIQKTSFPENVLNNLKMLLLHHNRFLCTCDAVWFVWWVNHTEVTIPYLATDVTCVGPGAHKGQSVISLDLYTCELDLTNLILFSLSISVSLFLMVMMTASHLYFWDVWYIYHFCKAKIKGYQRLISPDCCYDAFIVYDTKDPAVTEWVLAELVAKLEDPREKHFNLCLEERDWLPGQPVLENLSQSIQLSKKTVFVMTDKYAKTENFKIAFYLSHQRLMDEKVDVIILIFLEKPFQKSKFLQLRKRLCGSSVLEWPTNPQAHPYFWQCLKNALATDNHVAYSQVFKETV
Procedure, shortened: (§1)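 Compounds (final 0.001–36 µM) were added 15 min before stimulation with 10 µM TLR7 agonist Gardiquimod or 10 µM TLR8 ligand for 20 h. Read-out: SEAP from NF-κB/AP-1 reporter in hTLR7 (80,000 cells/well) or hTLR8 (60,000 cells/well) HEK-Blue cells, via Quanti-Blue; IC50 derived.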

[2] = molecular target: T2, human TLR8 (Homo sapiens, UniProt Q9NR97); experiment: HEK-Blue hTLR8 SEAP reporter gene inhibition assay; assay type: cell-based; settings: read-out: HEK-Blue hTLR8 IC50
T2 construct: expressed in transfected cells
T2 sequence (Q9NR97 27-1041): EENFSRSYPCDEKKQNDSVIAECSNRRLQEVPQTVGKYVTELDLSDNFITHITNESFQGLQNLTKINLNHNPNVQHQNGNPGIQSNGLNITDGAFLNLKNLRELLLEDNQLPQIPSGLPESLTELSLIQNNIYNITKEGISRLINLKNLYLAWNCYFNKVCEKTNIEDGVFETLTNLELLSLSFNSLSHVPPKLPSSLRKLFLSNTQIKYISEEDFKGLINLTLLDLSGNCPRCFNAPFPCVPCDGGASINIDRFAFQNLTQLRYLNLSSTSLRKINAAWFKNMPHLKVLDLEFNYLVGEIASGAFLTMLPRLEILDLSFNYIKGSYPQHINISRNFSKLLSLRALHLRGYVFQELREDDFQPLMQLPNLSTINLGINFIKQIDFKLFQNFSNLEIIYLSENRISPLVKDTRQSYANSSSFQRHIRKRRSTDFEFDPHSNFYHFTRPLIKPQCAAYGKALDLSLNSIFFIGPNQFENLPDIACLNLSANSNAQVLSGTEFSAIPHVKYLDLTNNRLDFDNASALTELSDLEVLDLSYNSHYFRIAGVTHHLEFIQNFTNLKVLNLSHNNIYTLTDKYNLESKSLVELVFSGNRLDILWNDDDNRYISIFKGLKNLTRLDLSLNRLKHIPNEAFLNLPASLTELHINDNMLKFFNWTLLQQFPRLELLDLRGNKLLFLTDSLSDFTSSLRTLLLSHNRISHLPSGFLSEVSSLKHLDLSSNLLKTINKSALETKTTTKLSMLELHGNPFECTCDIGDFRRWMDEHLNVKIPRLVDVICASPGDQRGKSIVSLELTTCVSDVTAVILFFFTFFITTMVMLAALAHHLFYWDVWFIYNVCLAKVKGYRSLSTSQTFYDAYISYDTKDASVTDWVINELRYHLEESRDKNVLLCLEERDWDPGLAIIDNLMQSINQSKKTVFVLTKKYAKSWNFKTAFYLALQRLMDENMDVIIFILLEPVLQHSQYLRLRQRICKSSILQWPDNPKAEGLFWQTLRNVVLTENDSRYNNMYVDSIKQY
Procedure, shortened: as §1

[3] = hTLR7 HEK-Blue cells, TLR7 ligand Gardiquimod 10 µM, 20 hours, SEAP by Quanti-blue, class symbols
[4] = hTLR8 HEK-Blue cells, TLR8 ligand 10 µM, 20 hours, SEAP by Quanti-blue, class symbols

Row | IC50 [1, 3] [µM] | IC50 [2, 4] [µM] | Compound | also measured
1 | < 0.05 | < 0.1 | C[C@@H]1CN(c2ccc(C#N)n3ncc(F)c23)Cc2c3c(nn21)CN(C[C@@](C)(O)CO)[C@@H](C)C3 [Example I-224, 4-((4R,9S)-8-((R)-2,3-dihydroxy-2-methylpropyl)-4,9-dimethyl-3,4,7,8,9,10-hexahydropyrido[3',4':3,4]pyrazolo[1,5-a]pyrazin-2(1H)-yl)-3-fluoropyrazolo[1,5-a]pyridine-7-carbonitrile] | –
2 | – | – | C[C@@H]1CN(c2ccc(C#N)n3ncc(F)c23)Cc2c3c(nn21)CN(CC(C)(CO)CO)[C@@H](C)C3 [Example I-225, 3-Fluoro-4-((4R,9S)-8-(3-hydroxy-2-(hydroxymethyl)-2-methylpropyl)-4,9-dimethyl-3,4,7,8,9,10-hexahydropyrido[3',4':3,4]pyrazolo[1,5-a]pyrazin-2(1H)-yl)pyrazolo[1,5-a]pyridine-7-carbonitrile] | IC50 [1]: > 0.05 µM; IC50 [2]: > 0.1 µM
3 | < 0.05 | > 0.1 | C[C@@H]1CN(c2ccc(C#N)n3ncc(F)c23)Cc2c3c(nn21)CN(C[C@](C)(O)CO)[C@@H](C)C3 [Example I-226, 4-((4R,9S)-8-((S)-2,3-dihydroxy-2-methylpropyl)-4,9-dimethyl-3,4,7,8,9,10-hexahydropyrido[3',4':3,4]pyrazolo[1,5-a]pyrazin-2(1H)-yl)-3-fluoropyrazolo[1,5-a]pyridine-7-carbonitrile] | –
4 | – | – | N#Cc1ccc(N2C[C@H](N)C[C@H](C(F)(F)F)C2)c2cccnc12 [Example M5049, reference compound] | IC50 ([1]; hTLR7 HEK-Blue cells, TLR7 ligand Gardiquimod 10 µM, 20 hours, SEAP by Quanti-blue, numeric value): 0.064 µM; IC50 ([2]; hTLR8 HEK-Blue cells, TLR8 ligand 10 µM, 20 hours, SEAP by Quanti-blue, numeric value): 0.15 µM
5 | > 0.05 | > 0.1 | N-(tert-butyl)-2-((4R,9S)-2-(7-cyano-3-fluoropyrazolo[1,5-a]pyridin-4-yl)-4,9-dimethyl-1,2,3,4,9,10-hexahydropyrido[3',4':3,4]pyrazolo[1,5-a]pyrazin-8(7H)-yl)acetamide [Example I-154] | –
